We go through one molecule from patent US9238015B2 (NESTEC S.A., priority 2012, dated 2016).

The subject of one series is AREc32 cells. The series can be described thus: AREc32 cell viability (ATP quantification, Cell Titer-Glo). The series is classed as cell-based. The conditions noted are these: 24 h. How it is done: To determine the Nrf2 activation the samples were tested on AREc32 cells (seeded in 96 well plates) using 10 independent dilutions (1/2, 1/4, 1/6, 1/10, 1/15, 1/20, 1/25, 1/30, 1/40 and 1/50) and incubated for 24 hours at 37° C. in a 5% CO2/air incubator. The luciferase activity and the cell viability (ATP measurements) were determined using the Luciferase and Cell Titer-Glo kits from Promega.
The cell viability was also measured using a cell Titer-Glo kit (ATP quantification).
For orientation: Cellular ATP, detected with luciferase, serves as a proxy for viable cell number.

The subject of the next series is HT-29 clone 34 cells. The series can be described thus: HT-29 clone 34 cell viability (ATP, Cell Titer-Glo). The series is classed as cell-based, human. The conditions noted are these: HT-29 clone 34 cells (FIG. 5). The method, then: 10000 cells/well were seeded in 200 μl of culture medium in flat bottom white border 96 well plates (Greiner Bio One, Kremsmuenster, Austria). […] 20 μl of experimental medium containing (or not) LPS 055:B5 or rhTNF-α (100 and 10 ng/ml final, respectively) was added and the plates were incubated for 24 hours at 37° C. in a 5% CO2/air incubator.
Cell viability was determined by measuring ATP using Cell Titer-Glo kit (Promega). Briefly, remaining adherent HT-29 clone 34 cells were incubated for 10 min at room temperature under horizontal shaking (250 rpm) with 120 μl of Cell Titer-Glo reagent (pre-diluted twice in 1×PBS) and the luminescence was measured using Polarstar microplate reader (BMG, Offenburg, Germany) for 1000 ms with a gain value set to 3500.

Another series relates to Nrf2. The series can be described thus: Nrf2 reporter assay (AREc32 cells, ARE-luciferase). The series is classed as cell-based. The settings on record: 24 h, dose range 0 to 200 μM (FIG. 3). The method, then: Activation of Nrf2 was measured using an Nrf2 reporter assay. This assay is based on the AREc32 cell line, from CRX biosciences (Dundee, Scotland), a stably transfected MCF7 (breast adenocarcinoma) cell line that contains a luciferase gene construct under the control of the ARE. Luciferase is an enzyme which digests luciferin and produces […]. Anti-oxidative molecules such as Tert-butylhydroquinone (TBHQ) induce luciferase transcription via the activation of Nrf2 that binds to ARE. Luciferase activity is determined using a luciferase kit form Promega (Madison, Wis.). The luciferase activity is proportional to the activation of Nrf2. […] The luciferase activity and the cell viability (ATP measurements) were determined using the Luciferase and Cell Titer-Glo kits from Promega. For each run the luciferase activities, measured in Relative Light Units (RLU), of all the wells were normalized with the mean of the luciferase activity of the cells only of all the plates. Among all the samples tested the normalization procedure was found not to affect the data and this observation permits the comparison of samples measured in different runs. For each sample the Nrf2 activation was calculated as follows: […] […] The luciferase content per sample allows a semi quantification of the Nrf2 activation by reflecting the amount of the Nrf2 activating molecule. […]
On the technique in general: In a reporter assay the amount or activity of a reporter protein is the signal.

The test system of the next series is NF-κB. The series is described as follows: NF-κB activity (SEAP and IL-8 production) in HT-29 clone 34 cells. The series is classed as cell-based, human. How it is done: Two in-vitro systems were used: human colonic cells (HT-29 clone 34) and human monocytes/macrophages (THP-1 blue cells). The human colonic adenocarcinoma HT-29 clone 34 cell line (passage 42-50) are adherent cells stably transfected with a NF-κB/SEAP reporter plasmid. They were cultured in DMEM high glucose (4.5 g/L) (Invitrogen) containing 1% of stable L-glutamine and supplemented with 10% of heat inactivated (one hour at 56° C.) Foetal Calf Serum (FCS) (Bioconcept, Allschwil, Switzerland), 1% of Penicillin/Streptomycin (Sigma) and 500 μg/ml of Geneticin (PAA, Pasching, Austria) at 37° C. in a 5% CO2/air incubator. Culture medium was renewed every two days until the cell monolayer reached ˜90% confluence. Cells were sub-cultured using 1× Trypsin/EDTA (Sigma). 10000 cells/well were seeded in 200 μl of culture medium in flat bottom white border 96 well plates (Greiner Bio One, Kremsmuenster, Austria). […] Cell culture supernatants were then collected for measurement of NF-κB activity (determination of secreted alkaline phosphatase and IL-8 production) using Phosphalight (Applied Biosystems) and IL-8 singleplex (Meso Scale, Gaithersburg, Md.) kits, respectively.

A further series has as its system THP-1 blue cells. The series can be described thus: THP-1 blue cell viability (Cell Titer-Glo). Type of series: cell-based, human. The conditions noted are these: THP-1 blue cells (FIG. 6). How it is done:
200000 cells/well were seeded in 100 μl of culture medium in 96 well flat bottom transparent plates. […] 20 μl of culture media containing (or not) LPS 055:B5 (Sigma) (100 ng/ml final) was added and the plates were incubated for 16 hours at 37° C. in a 5% CO2/air incubator.
Cell culture supernatants were carefully transferred to 96 well-plates for NF-κB activity measurement which is proportional to the level of secreted alkaline phosphatase. Briefly, 100 μl of supernatants were mixed with 150 μl of QuantiBlue (Invivogen) in a 96 well-plates incubated for 3 h at 37° C. before OD measurements at 620 nm with Sunrise microplate reader (Tecan, Mannedorf, Switzerland). Cell viability was determined using Cell Titer-Glo kit as described above.

Structures are written as SMILES. A value given as a limit tells only on which side of the number the result lay.

For the molecule `CC(=O)/C=C/C(=O)O` [4-oxo-2-pentenoic acid], the “doses at which viability of AREc32 cells was not affected” value in the series with AREc32 cells is on record as “lower than 70 μM”. For the same molecule, in the series with HT-29 clone 34 cells, the “doses showing a decrease in cell viability” value is more than 50 µM. Also, in the series on Nrf2, the Nrf2 activation result is given as “strongly activate Nrf2 in a dose dependent manner”. In the series with NF-κB (HT-29 clone 34 cells stimulated with LPS (FIG. 5)), the “inhibition of NF-κB activity” value is on record as “inhibits NF-κB activity in a dose dependent manner”. Also, the “NF-κB activity (SEAP or IL-8 detection) in the absence of LPS” value with NF-κB (HT-29 clone 34 cells, no LPS, doses tested 3 to 400 μM) is “no NF-κB activity was observed”. Moreover, the “doses toxic to cells” value in the series with THP-1 blue cells was “higher than 75 μM”.
